From ChEMBL document CHEMBL6078687 (J Med Chem, 2024)

Tests used:
Influenza A virus [1] = assay: Antiviral activity against Influenza A virus A/WSN/67/05 H3N2 infected in MDCK cells assessed as inhibition of plaque formation measured after 2 days; details: A/WSN/67/05 H3N2, MDCK, 48 h
in vivo [2] = details: Sprague-Dawley, rat, iv, 2 mg/kg
[3] = MRT (0 to infinity) in Sprague-Dawley rat at 2 mg/kg, iv measured for 15 to 1440 mins by LC-MS/MS analysis; type: ADME, organism-based; details: in vivo, time 15-1440 min
[4] = Acute toxicity in Kunming mouse assessed as signs of disheveled fur at 1000 mg/kg, IG measured for 1 week; type: organism-based; details: in vivo, po, 168 h, time 1 weeks
[5] = Clearance in Sprague-Dawley rat at 2 mg/kg, iv measured for 15 to 1440 mins by LC-MS/MS analysis; type: ADME, organism-based; details: in vivo, time 15-1440 min
in vivo [6] = details: Sprague-Dawley, rat, po, 20 mg/kg
[7] = Inhibition of neuraminidase in Influenza A virus A/Babol/36/2005 H3N2 using MUNANA as substrate incubated for 40 mins by […] based assay
[8] = Metabolic stability in human plasma assessed as half life at 2 uM incubated upto 120 mins by LC-MS/MS analysis; type: ADME, cell-free
[9] = Tmax in Sprague-Dawley rat at 2 mg/kg, iv measured for 15 to 1440 mins by LC-MS/MS analysis; type: ADME, organism-based; details: in vivo, time 15-1440 min
Influenza A virus [10] = assay: microbe, parasite or virus in culture; details: A/PR/8/34 H1N1, MDCK, 48 h
in vitro [11] = details: human, liver microsomes
[12] = Cytotoxicity against CEF cells incubated for 48 hrs by CCK8 assay; type: toxicity, cell-based, Gallus gallus; details: chicken
[13] = MRT (0 to t) in Sprague-Dawley rat at 20 mg/kg, po measured for 15 to 1440 mins by LC-MS/MS analysis; type: ADME, organism-based; details: in vivo, time 15-1440 min
Influenza A virus [14] = assay: microbe, parasite or virus in culture; details: A/Goose/Guangdong/SH7/2013 H5N1, CEF, 48 h
[15] = Acute toxicity in Kunming mouse assessed as signs of sedation at 1000 mg/kg, IG measured for 1 week; type: organism-based; details: in vivo, po, 168 h, time 1 weeks
[16] = Acute toxicity in Kunming mouse assessed as animal mortality at 1000 mg/kg, IG measured for 1 week; type: organism-based; details: in vivo, po, 168 h, time 1 weeks
[17] = Oral bioavailability in Sprague-Dawley rat at 20 mg/kg measured for 15 to 1440 mins by LC-MS/MS analysis; type: ADME, organism-based; details: in vivo, time 15-1440 min
[18] = Cmax in Sprague-Dawley rat at 20 mg/kg, po measured for 15 to 1440 mins by LC-MS/MS analysis; type: ADME, organism-based; details: in vivo, time 15-1440 min
[19] = Tmax in Sprague-Dawley rat at 20 mg/kg, po measured for 15 to 1440 mins by LC-MS/MS analysis; type: ADME, organism-based; details: in vivo, time 15-1440 min
[20] = MRT (0 to infinity) in Sprague-Dawley rat at 20 mg/kg, po measured for 15 to 1440 mins by LC-MS/MS analysis; type: ADME, organism-based; details: in vivo, time 15-1440 min
Influenza A virus [21] = assay: microbe, parasite or virus in culture; details: A/Goose/Jiangsu/1306/2014 H5N8, CEF, 48 h
in vivo [22] = details: Sprague-Dawley, rat, iv, 2 mg/kg; remark: listed apart in the source
[23] = Half life in Sprague-Dawley rat at 2 mg/kg, iv measured for 15 to 1440 mins by LC-MS/MS analysis; type: ADME, organism-based; details: in vivo, time 15-1440 min
[24] = Metabolic stability in human plasma assessed as compound remaining at 2 uM incubated upto 120 mins by LC-MS/MS analysis; type: ADME, cell-free; details: read-out: Stability
[25] = Half life in Sprague-Dawley rat at 20 mg/kg, po measured for 15 to 1440 mins by LC-MS/MS analysis; type: ADME, organism-based; details: in vivo, time 15-1440 min
[26] = Acute toxicity in Kunming mouse assessed as signs of convulsion movements at 1000 mg/kg, IG measured for 1 week; type: organism-based; details: in vivo, po, 168 h, time 1 weeks
[27] = Cytotoxicity against MDCK cells incubated for 48 hrs by MTT assay; type: toxicity, cell-based, Canis lupus familiaris; details: dog
[28] = Apparent volume of distribution in Sprague-Dawley rat at 2 mg/kg, iv measured for 15 to 1440 mins by LC-MS/MS analysis; type: ADME, organism-based; details: in vivo, time 15-1440 min, read-out: Vz
[29] = Acute toxicity in Kunming mouse assessed as drug tolerance at 1000 mg/kg, IG measured for 1 week; type: organism-based; details: in vivo, po, 168 h, time 1 weeks
[30] = Acute toxicity in Kunming mouse assessed as signs of appetite loss at 1000 mg/kg, IG measured for 1 week; type: organism-based; details: in vivo, po, 168 h, time 1 weeks
[31] = Acute toxicity in Kunming mouse assessed as increase in body weight at 1000 mg/kg, IG measured for 1 week; type: organism-based; details: in vivo, po, 168 h, time 1 weeks
in vitro [32] = details: human, liver microsomes; remark: listed apart in the source
in vivo [33] = details: Sprague-Dawley, rat, po, 20 mg/kg; remark: listed apart in the source
[34] = Cmax in Sprague-Dawley rat at 2 mg/kg, iv measured for 15 to 1440 mins by LC-MS/MS analysis; type: ADME, organism-based; details: in vivo, time 15-1440 min
[35] = MRT (0 to t) in Sprague-Dawley rat at 2 mg/kg, iv measured for 15 to 1440 mins by LC-MS/MS analysis; type: ADME, organism-based; details: in vivo, time 15-1440 min
[36] = Inhibition of neuraminidase in Influenza A virus A/Goose/Guangdong/SH7/2013 H5N1 using MUNANA as substrate incubated for 40 mins by […] based assay
[37] = Metabolic stability in human liver microsomes assessed as compound remaining incubated for 60 mins by LC-MS/MS analysis; type: ADME, Microsome; details: 1 h

Row | Structure (SMILES) | EC50 (Influenza A virus [1]) [nM] | AUC(0-t) (in vivo [2]) [ng·h/mL] | MRT inf [3] [min] | Activity [4] | clearance [5] [mL/min/kg] | AUC(0-inf) (in vivo [6]) [ng·h/mL] | IC50 [7] [nM] | half-life at 2 µM [8] [min] | Tmax [9] [min] | EC50 (Influenza A virus [10]) [nM] | CLint scaled at 2 h (in vitro [11]) [mL/min/kg] | CC50 at 48 h [12] [nM] | MRT last [13] [min] | EC50 (Influenza A virus [14]) [nM] | Activity [15] | Activity [16] | bioavailability [17] [%] | Cmax [18] [ng/mL] | Tmax [19] [min] | MRT inf [20] [min] | other results
1 | CCC(CC)O[C@@H]1C=C(C(=O)O)C[C@H](NCc2ccc(OCc3cccc(B(O)O)c3)cc2C)[C@H]1NC(C)=O | 67500 | 1370 | 7.8 | Non-toxic | 24.8 | 20.3 | 470 | > 289 | 4.98 | 8 | 10.1 | > 200000 | 48.6 | 1290 | Non-toxic | Non-toxic | 0.15 | 10.4 | 1320 | 117 | EC50 (Influenza A virus [21]): 1270 nM; AUC(0-inf) (in vivo [22]): 1380 ng·h/mL; half-life [23]: 15 min; remaining at 2 h, 2 µM [24]: 99.3%; half-life [25]: 78.6 min; Activity [26]: Non-toxic; EC50 at 48 h [27]: > 250000 nM; Vd [28]: 0.511 L/kg; Activity [29]: Non-toxic; Activity [30]: Non-toxic; Activity [31]: Toxic; microsomal CLint at 2 h (in vitro [32]): 11.2 µL/min/mg; AUC(0-t) (in vivo [33]): 12.7 ng·h/mL; Cmax [34]: 4850 ng/mL; MRT last [35]: 7.8 min; IC50 [36]: 90 nM; Stability [37]: 112.2%
2 | CCC(CC)O[C@@H]1C=C(C(=O)O)C[C@H](NCc2ccc(OCc3cccc(B(O)O)c3)cc2Cl)[C@H]1NC(C)=O | > 100000 | 747 | 10.2 | Non-toxic | 45.5 | 48.8 | 260 | > 289 | 4.98 | 8 | 12.2 | > 200000 | 46.8 | 5410 | Non-toxic | Non-toxic | 0.65 | 57.5 | 15 | 54.6 | EC50 (Influenza A virus [21]): 3260 nM; AUC(0-inf) (in vivo [22]): 749 ng·h/mL; half-life [23]: 16.8 min; remaining at 2 h, 2 µM [24]: 104%; half-life [25]: 41.4 min; Activity [26]: Non-toxic; EC50 at 48 h [27]: > 250000 nM; Vd [28]: 1.12 L/kg; Activity [29]: Non-toxic; Activity [30]: Non-toxic; Activity [31]: Toxic; microsomal CLint at 2 h (in vitro [32]): 13.6 µL/min/mg; AUC(0-t) (in vivo [33]): 47 ng·h/mL; Cmax [34]: 2520 ng/mL; MRT last [35]: 9.6 min; IC50 [36]: 17 nM; Stability [37]: 98.6%
